Assay results: patent US20080039442A1, “Compounds With Kv4 Ion Channel Activity” (Devgen NV, priority 2004, published 2008)

Experiments:
[1] = system: isolated guinea pig right ventricular papillary muscle; assay: Ex-vivo functional refractory period in isolated guinea pig papillary muscle; conditions: conc 10^−5 mol/l
Source text: (§1) The compounds were checked for their effect on the force of contraction, stimulation threshold and for the Functional Refractory Period (FRP) in isolated rat left atria (Rat LA). Rat left atria functionally express the Kv4.3 ion channel, producing the Ito current of the action potential. […] The guinea pig action potential is dominated by hERG like ion channels for the refractory currents. Consequently, activity of hERG channels in vivo should be seen in GP papillary muscle preparations.
Method: Rat LA (Same Method Applies to GP Pap. Muscle)
Left atria were mounted vertically in a two-chambered organ bath containing 100 ml of buffer solution (in mM: NaH2PO4 0.6, MgSO4 0.6, KCl 4.7, NaHCO3 25, glucose 4.5, NaCl 120, CaCl2 2.4). The solution was saturated with and circulated by a gas mixture containing 95% O2 and 5% CO2. The temperature was kept constant at 30° C. […] The isometric force of the preparations was measured by force transducers, connected to amplifiers, documented by a pen recorder and fed into a computer for evaluation. Force of contraction (FC), threshold stimulus (TS) and the functional refractory period (FRP) were measured at baseline (pre), 20 min after addition of compound, and after washout at the end of the experiment. Threshold stimulus, representing excitability of the tissue, was assessed by varying the voltage applied for electrical stimulation. […]

[2] = system: isolated rat left atria; assay: Ex-vivo functional refractory period in isolated rat left atria; conditions: conc 10^−5 mol/l
Source text: as §1
Left atria were mounted vertically in a two-chambered organ bath containing 100 ml of buffer solution (in mM: NaH2PO4 0.6, MgSO4 0.6, KCl 4.7, NaHCO3 25, glucose 4.5, NaCl 120, CaCl2 2.4). […] The isometric force of the preparations was measured by force transducers, connected to amplifiers, documented by a pen recorder and fed into a computer for evaluation. Force of contraction (FC), threshold stimulus (TS) and the functional refractory period (FRP) were measured at baseline (pre), 20 min after addition of compound, and after washout at the end of the experiment. Threshold stimulus, representing excitability of the tissue, was assessed by varying the voltage applied for electrical stimulation. […] The functional refractory period, representing the time needed for repolarization, was assessed by applying extra stimuli at varying time intervals from the preceding regular pacing stimulus. […]

[3] = system: conscious telemetric mice; assay: Telemetric ECG in conscious mice, consecutive i.p. dosing; assay type: in vivo, mice (NRMI)
Procedure: Male mice (NRMI) were anesthetized with a gas mixture of isoflurane, nitrous oxide and oxigen. Leads connected to a telemetry transmitter (TA10EA-F20, DSI, St. Paul, USA) were fixed by suture in the xiphoid and ventral neck region. The telemetry transmitter was placed under the skin on the back. Wounds were closed in layers and the animals were allowed to recover for at least 1 week.
On the day of the experiment the animals receive consecutive doses of vehicle i.p. at 60 min dosing intervals. ECG tracings (12 s duration) was recorded using the Data Sciences A.R.T. system. After completion of the experiment ECGs were analyzed automatically by Data Sciences ECG software (DSI, St. Paul, USA). QT and QRS intervals were measured manually in the stored ECGs. QTc was calculated from the QT interval and the corresponding heart rate using Bazett's formula. Heart rate was taken from the online analysis, given by the DSI Labpro and DSI A.R.T. systems (DSI, St. Paul, USA). Finally, ECG intervals were transferred to an Excel spreadsheet, checked for plausibility, and converted into 15 min averages.

[4] = target: hERG potassium channel (Homo sapiens, UniProt Q12809)
Chain of hERG potassium channel (Q12809 whole entry): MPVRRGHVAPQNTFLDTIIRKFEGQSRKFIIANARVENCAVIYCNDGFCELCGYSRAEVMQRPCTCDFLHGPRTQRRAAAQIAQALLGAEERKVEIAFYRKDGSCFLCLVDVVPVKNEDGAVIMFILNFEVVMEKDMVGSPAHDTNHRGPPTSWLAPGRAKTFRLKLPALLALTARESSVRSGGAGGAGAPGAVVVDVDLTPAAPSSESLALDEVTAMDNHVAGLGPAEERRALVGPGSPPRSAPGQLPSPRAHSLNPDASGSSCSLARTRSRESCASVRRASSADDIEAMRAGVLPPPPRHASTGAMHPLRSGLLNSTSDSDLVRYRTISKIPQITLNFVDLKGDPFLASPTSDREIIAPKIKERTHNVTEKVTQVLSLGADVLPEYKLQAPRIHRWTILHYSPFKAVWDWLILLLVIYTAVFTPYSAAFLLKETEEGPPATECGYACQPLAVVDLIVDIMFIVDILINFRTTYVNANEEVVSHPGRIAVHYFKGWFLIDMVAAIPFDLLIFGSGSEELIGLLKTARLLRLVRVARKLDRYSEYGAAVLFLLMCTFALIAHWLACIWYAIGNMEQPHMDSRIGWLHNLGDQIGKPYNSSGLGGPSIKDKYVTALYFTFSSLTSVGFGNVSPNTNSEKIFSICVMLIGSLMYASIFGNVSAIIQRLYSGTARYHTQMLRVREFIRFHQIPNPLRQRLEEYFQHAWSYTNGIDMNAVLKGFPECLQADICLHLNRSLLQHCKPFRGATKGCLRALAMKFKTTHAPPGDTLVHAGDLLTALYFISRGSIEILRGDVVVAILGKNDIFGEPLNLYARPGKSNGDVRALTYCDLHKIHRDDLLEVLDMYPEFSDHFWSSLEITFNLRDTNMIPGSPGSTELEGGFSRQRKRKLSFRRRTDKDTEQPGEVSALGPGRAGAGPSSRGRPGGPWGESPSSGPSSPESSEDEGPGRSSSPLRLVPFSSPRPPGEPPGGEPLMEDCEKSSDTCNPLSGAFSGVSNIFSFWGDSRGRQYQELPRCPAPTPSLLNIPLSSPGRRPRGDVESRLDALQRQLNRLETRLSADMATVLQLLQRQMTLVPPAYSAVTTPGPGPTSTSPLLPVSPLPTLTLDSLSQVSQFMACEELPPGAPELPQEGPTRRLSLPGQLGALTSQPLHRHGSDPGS
Source text: For this experiment HEK 293 T-REx HERG cells (#23) were used. This cell line made by IonGate is characterized by the inducible expression of the hERG gene. The T-REx™ System (Invitrogen, Karlsruhe, Germany) is a tetracycline-regulated mammalian expression system that uses regulatory elements from the E. coli Tn10-encoded tetracycline (Tet) resistance operon. In the absence of Tet the expression is repressed. Tetracycline regulation in the T-REx™ System is based on the binding of tetracycline to the Tet repressor and derepression of the promoter controlling expression of the hERG gene. Addition of Tet to the cell culture media results in expression of the hERG potassium channel.
To construct the HEK 293 T-REx HERG cell line, the hERG gene was ligated into the inducible expression vector pcDNA4/TO (→pc4TO-HERG) and transfected into HEK 293 T-REx cells (this cell line stably expresses the Tet repressor and was purchased at Invitrogen). Stable cell clones were isolated after selection with Blasticidin (5 μg/ml) and Zeocin™ (300 μg/ml). The clones were electrophysiological characterized after induction with 1 μg/ml Tet.
Experiments were performed using the patch clamp set-up. Technical equipment needed for manipulation of the cells was placed on a vibration-isolated table and shielded with a Faraday cage to minimize electrical noise. The amplifier and control system were placed in a rack outside the Faraday cage. The system consisted of an EPC9 or EPC10 patch clamp amplifier (HEKA, Lambrecht, Germany), and the perfusion system DADVC8 (ALA Scientific, New York, USA) controlled by the Pulse software package (HEKA, Lambrecht, Germany) installed on a personal computer.
The cells used for this experiment were kept in continuous culture under standard conditions (37° C., air supplemented with 5% CO2). The HEK 293 T-REx HERG cells were kept in minimal essential medium (MEM) supplemented with 100 U/ml Penicillin, 100 μg/ml Streptomycin, 10% fetal calf serum (FCS), 1% non-essential amino acids (NEAA), 2.5 μg/ml amphotericin, 300 μg/ml Zeocin™ and 5 μg/ml Blasticidin. Cells were passed every 3-4 days after detachment using a Trypsin solution. The quality of the cultured cells was guaranteed by vitality and contamination tests.
At least 18 hours prior to electrophysiological experiments the cells were detached by application of iced PBS (phosphate buffered saline) or Trypsin and replated on cover slips. 1 μg/ml Tet was added to the cells to induce hERG expression.
Activity of the cardiac hERG channel was investigated using the patch clamp technique in its whole cell mode. This means that the current needed for clamping the whole cell expressing the K^+-channel protein to a specific potential was measured. The pipettes used for patch clamping were made of borosilicate glass. Measurements were performed at room temperature (20-25° C.). In each experiment (i.e. each cell) only one concentration of the compound was investigated—no cumulative dosages were performed. Each cell acted as its own control. The effect of the compounds on hERG mediated currents was investigated at one concentration (10 μM) with two replicates each (c=1, n=2).
Between voltage pulses the cell was clamped to a holding potential of −80 mV (inside).
(b) and (c) were used to characterize the properties of the hERG channel and to check the quality of the individual patch clamp experiment (voltage control). Each test protocol consisted of 6 segments.

For “5-chloro-benzofuran-2- carboxylic acid 2,4- dimethoxy- benzylamide [Compound 2]”, the “dFRP Guinea Pig” value [1] was 0 ms, the “dFRP Rat” value [2] was 17 ms and the “maximum prolongation of QTc” value ([3]; 15 μmol/kg i.p., highest dose tested, Bazett, n=5) was 33 ms. For the same substance, the “maximum prolongation of QT” value ([3]; 15 μmol/kg i.p., highest dose tested, n=5) was 12 ms, the “Heart rate (result in words)” value ([3]; 3-15 μmol/kg i.p.) was “minor and not significant decrease” and the “Locomotor activity (result in words)” value ([3]; 3-15 μmol/kg i.p.) was “reproducible rise after each of the subsequent injections”. The “PQ and QRS (result in words)” value ([3]; 3-15 μmol/kg i.p.) was “did not show dose-dependent changes”, the IC50 [4] was 16.7 µM and the “Ratio hERG/Kv4.3” value [4] was 9.6.
